Data as given in paper PMC10002517, “Inhibition of Transglutaminase 2 as a Therapeutic Strategy in Celiac Disease—In Vitro Studies in Intestinal Cells and Duodenal Biopsies” (International Journal of Molecular Sciences, 2023).

How the values were obtained:
[1] = target: T1, TG2 in Caco-2 cell lysates (Homo sapiens, UniProt P21980); test: Transglutaminase activity in Caco-2 whole cell lysates (5BP cross-linking); type: biochemical; settings: 10 µM inhibitor (b1); lysate of differentiated Caco-2 cells incubated with 5BP and inhibitor overnight; mean ± SD, n = 3
T1 construct: endogenous in cells; host or cells: Caco-2 (differentiated; IFN-γ-stimulated in the monolayer assay)
T1 sequence (P21980 1-687): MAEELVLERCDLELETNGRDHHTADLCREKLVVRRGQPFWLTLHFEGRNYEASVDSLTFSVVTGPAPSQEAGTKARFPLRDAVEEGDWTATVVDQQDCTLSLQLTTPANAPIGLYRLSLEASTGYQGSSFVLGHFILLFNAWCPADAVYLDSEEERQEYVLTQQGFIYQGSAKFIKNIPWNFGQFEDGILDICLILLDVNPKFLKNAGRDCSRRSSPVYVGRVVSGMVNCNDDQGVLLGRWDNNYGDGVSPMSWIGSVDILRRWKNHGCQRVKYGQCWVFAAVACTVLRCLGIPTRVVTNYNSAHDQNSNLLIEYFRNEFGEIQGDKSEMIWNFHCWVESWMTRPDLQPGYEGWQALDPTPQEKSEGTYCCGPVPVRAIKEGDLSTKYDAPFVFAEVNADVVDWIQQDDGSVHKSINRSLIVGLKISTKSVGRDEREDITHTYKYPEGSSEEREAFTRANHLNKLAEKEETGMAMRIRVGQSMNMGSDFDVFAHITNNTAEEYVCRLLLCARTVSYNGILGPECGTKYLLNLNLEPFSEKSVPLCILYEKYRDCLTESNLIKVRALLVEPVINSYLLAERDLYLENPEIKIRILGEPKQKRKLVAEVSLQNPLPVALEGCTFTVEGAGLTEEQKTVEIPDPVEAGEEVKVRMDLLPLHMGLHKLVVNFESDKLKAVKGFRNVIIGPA
Description: The method to investigate TG2 activity from whole cell lysates was adapted from Lin et al.. In brief, 20 µg protein per cavity on the 96-well plate were incubated in 50 mM Tris, 1 mM EDTA, 5 mM calcium chloride (pH 7.5) buffer in the presence of 500 µM 5BP (5-biotinamidopentylamine, Thermo Fisher Scientific, Langenselbold, Germany) for the indicated time. After incubation, the plate was washed three times with PBS + 0.05% Tween. After blocking with 5% BSA in PBS for 1 h, the plate was incubated with 2 µg/mL streptavidin-Alexa Fluor 488 (Thermo Fisher Scientific) in 5% BSA. After 3 washing steps with PBS + 0.05% Tween, fluorometric evaluation was performed using a Clariostar Plus (BMG Labtech) microplate reader (no well scan mode, excitation 488 nm, emission 535 nm, fixed gain: 2000).

[2] = target: T2, extracellular TG2 on Caco-2 cells (Homo sapiens, UniProt P21980); test: Extracellular TG2 activity on confluent Caco-2 cell monolayers (5BP cross-linking); type: cell-based; settings: n = 4; for reduction of TG2 activity on the cell surface: IFN-γ-stimulated Caco-2 cells, 5BP 3 h
T2 construct: endogenous in cells; host or cells: Caco-2 (differentiated; IFN-γ-stimulated in the monolayer assay)
T2 sequence (P21980 1-687): T1 sequence (P21980 1-687)
Description: The method was adapted from Yi et al.. To induce TG2 expression, Caco-2 cells were stimulated with IFN-γ 1000 IU/mL for 48 h. Then, cells were washed three times with warm PBS and incubated with the substrate 5BP for 3 h at 37 °C in 50 mM Tris and 1 mM EDTA (pH 7.5). The substances ERW1041, PX-12 and DTT were added to this solution when indicated. After incubation, cells were washed three times with PBS, fixed with 4% paraformaldehyde for 10 min and blocked with 5% BSA in PBS at 4 °C overnight. Then, cells were incubated at room temperature with streptavidin-Alexa488 (Thermo Scientific, 4 µg/mL) in 5% BSA in the dark for 1 h, followed by three washes with PBS. Fluorometric quantitation was conducted using a FLUOstar Optima microplate reader (BMG Labtech, filter settings: excitation 485 nm, emission 525 nm). Manual gain adjustment was performed, setting the well with the most intense signal as 95%. In all experiments, data were background subtracted against a control without 5BP substrate.

[3] = tested on: transepithelial passage of P31-43 in Caco-2 cells; test: Transepithelial transport of promofluor-conjugated gliadin peptide P31-43 across Caco-2 monolayers (fluorometry); type: cell-based, human; settings: 1 µM and 100 µM inhibitor; 3 h
Description: (§1) Transepithelial transport of immunogenic and toxic gliadin peptides were examined in Caco-2 cells 7–14 days after confluency. Caco-2 cells were seeded on semi-permeable transwell supports (ThinCert, culture surface: 33.6 mm², pore size: 0.4 µm) in 24-well plates (Greiner Bio One, Pleidelsheim, Germany). Prior to the transport experiments, the integrity of the cell monolayer was tested by measuring the transepithelial electric resistance (TEER) using a volt-ohm meter (Millipore, Schwalbach, Germany). Monolayers with insufficient TEER (<350 Ω/cm^2) were omitted. The synthesis and purification of promofluor-conjugated gliadin peptides were described elsewhere. Cells were either incubated with the immunogenic peptide P56-88 ([…]) or the toxic gliadin peptide P31-43 (LGQQQPFPPQQPY), 7 µg/mL each, in Hank’s balanced salt solution (HBSS) for 3 h. To investigate the role of TG2 on the transport of gliadin peptides, incubation was performed in the presence of ERW1041 and PX-12. After 3 h, basal and apical supernatants were collected, and the relative fluorescence of the basal compartment was quantified using a FLUOstar Optima (BMG Labtech) microplate reader. Background subtraction was performed against conditions, where no labeled peptides were used. Normalization was performed against conditions, where no inhibitors were used.

[4] = tested on: transepithelial passage of P56-88 in Caco-2 cells; test: Transepithelial transport of promofluor-conjugated gliadin peptide P56-88 across Caco-2 monolayers (fluorometry); type: cell-based, human; settings: 3 h; for transepithelial passage of P56-88 (relative basal fluorescence): 7 µg/mL peptide apical in HBSS, normalized to no inhibitor, mean ± SD, n = 3
Description: as §1

[5] = tested on: uptake of P56-88 by Caco-2 cells; test: Epithelial uptake of P56-88 by Caco-2 cells (confocal microscopy); type: cell-based, human; settings: confocal microscopy
Description: For microscopic evaluation, Caco-2 cells were seeded on polymer-covered µ-slides (80826, Ibidi) and incubated for 1 h with labeled gliadin peptides in the presence of TG2 inhibitors. After three washes with PBS, cells were fixed with 4% paraformaldehyde. Nuclear staining was performed for 10 min using Hoechst fluorescent stain (1:1000 in PBS). Imaging was done using a confocal laser scanning microscope (TE2000-E, Nikon) and a 60× Plan Apo (NA 1.41) immersion oil objective. Processing of z-stacks, including 3D reconstruction, was performed using ImageJ [46]. For quantitation, z-stack images were taken with the same microscope settings. Using ImageJ, maximum intensity projections were obtained of the z-stack images, and the fluorescence intensity was measured within the whole image.

tumor cell lines = settings: 10 µM; cited from earlier work
Description: To further examine the applicability of both substances, we analyzed their effect on the viability of Caco-2 cells. […] In those studies, however, viability was determined in tumor cell lines and not in differentiated int ...

[6] = given intravenously, clinical trials; rapid binding to plasma components; cited from earlier work
Text: This might be explained by rapid degradation or reduction of PX-12 by living cells. This is in line with observations in clinical trials, where PX-12 plasma levels were very low when given intravenously due to rapid binding to plasma components.

[7] = 1 h incubation with peptide and inhibitor, n = 3

TG2 activity in Caco-2 cell lysates [1] | reduction of TG2 activity on the cell surface ([2]; 10 µM) | reduction of TG2 activity on the cell surface ([2]; 100 µM) | uptake of P56-88 by Caco-2 cells ([5]; 100 µM inhibitor, 1 h) | Structure (SMILES) | transport of P31-43 [3] | transepithelial passage of P56-88 (relative basal fluorescence) ([4]; 1 µM inhibitor) | transepithelial passage of P56-88 (relative basal fluorescence) ([4]; 100 µM inhibitor) | uptake of P56-88 by Caco-2 cells [5, 7] | inhibition of TG2 on confluent Caco-2 monolayers ([2]; concentrations between 10 nM and 100 µM) | effect on the epithelial translocation of P56-88 [4] | cytotoxicity (tumor cell lines) | plasma levels [6]
45 ± 19% | about 32% | ~70% | nearly absent | O=C(NC[C@@H]1CC(Br)=NO1)[C@@H]1CCCN1C(=O)OCc1cnc2ccccc2c1 [ERW1041] | remained unaffected | 33 ± 22% | 24 ± 16% | reduced the uptake of P56-88 in a dose-dependent manner | – | – | – | –
12 ± 7% | – | – | – | CCC(C)SSc1ncc[nH]1 (centres unmarked) [PX-12, 2-[(1-methylpropyl)dithio]-1H-imidazole] | – | – | – | did not affect the uptake of P56-88 | did not observe any significant inhibition of TG2 | no significant effect | cytotoxic effects | very low
